From US20210100897A1, “METHODS FOR THE STIMULATION OF DENDRITIC CELL (DC) PRECURSOR POPULATION "PRE-DC" AND THEIR USES THEREOF” (AGENCY FOR SCIENCE, TECHNOLOGY AND RESEARCH, priority 2017, published 2021)

What was measured:
Format in all cases: cell-based, human
[1] = system: pre-DC; experiment: Luminex Drop Array assay on sorted and stimulated pre-DC, culture supernatants; conditions: TLR7/8 or TLR9 stimulation; FIG. 2G and FIG. 13
Description: (§1) A total of 2,000 cells/well of sorted pre-DC and DC subsets were seeded in V-bottom 96 well plates and then incubated for 18 h in 50 μL complete RPMI-1640 Glutmax media (Life Technologies) supplemented with 10% FBS and 1% penicillin/streptomycin, and stimulated with either LPS, LPS+IFNγ, Flagellin, polyI:C, Imidazoquinoline or CpG oligodeoxynucleotides (ODN) 2216. Cells were then pelleted and 30 μL supernatant was collected. A Luminex® Drop Array™ was performed using 5 μL of the supernatant. Human G-CSF, GM-CSF, IFN-α2, IL-10, IL-12p40, IL-12p70, IL-15, IL-1RA, IL-1a, IL-1b, IL-6, IL-7, IL-8, MIP-1b, TNF-α, TNF-β were tested by multiplexing (EMD Millipore) with DropArray-bead plates (Curiox) according to the manufacturer's instructions. Acquisition was performed using xPONENT 4.0 (Luminex) acquisition software, and data analysis was performed using Bio-Plex Manager 6.1.1 (Bio-Rad).

[2] = system: pDC; experiment: Intracellular cytokine detection following stimulation with TLR ligands (PBMC, flow cytometry), pDC; conditions: PBMC stimulated 6 h with TLR agonist
Description: All antibodies used for fluorescence-activated cell sorting (FACS) and flow cytometry were mouse anti-human monoclonal antibodies (mAbs), except for chicken anti-human CADM1 IgY primary mAb. Briefly, 5×10^6 cells/tube were washed and incubated with Live/Dead blue dye (Invitrogen) for 30 min at 4° C. in phosphate buffered saline (PBS) and then incubated in 5% heat-inactivated fetal calf serum (FCS) for 15 min at 4° C. (Sigma Aldrich). The appropriate antibodies diluted in PBS with 2% fetal calf serum (FCS) and 2 mM EDTA were added to the cells and incubated for 30 min at 4° C., and then washed and detected with the secondary reagents. For intra-cytoplasmic or intra-nuclear labeling or staining, cells were fixed and permeabilized with BD Cytofix/Cytoperm (BD Biosciences) or with eBioscience FoxP3/Transcription Factor Staining Buffer Set (eBioscience/Affimetrix), respectively according to the manufacturer's instructions. Flow cytometry was performed using a BD LSRII or a BD FACSFortessa (BD Biosciences) and the data analyzed using BD FACSDiva 6.0 (BD Biosciences) or FlowJo v.10 (Tree Star Inc.). For isolation of precursor dendritic cells (pre-DC), PBMC were first depleted of T cells, monocytes and B cells with anti-CD3, anti-CD14 and anti-CD20 microbeads (Miltenyi Biotec) using an AutoMACS Pro Separator (Miltenyi Biotec) according to the manufacturer's instructions. […]

[3] = system: pDC; experiment: Luminex Drop Array assay on sorted and stimulated pDC, culture supernatants; conditions: TLR7/8 or TLR9 stimulation; FIG. 2G and FIG. 13
Description: as §1

Question: Which results are given for CCOCc1nc2c([nH]1)c(N)nc1ccccc12 [CL097]?
Answer: IL-12p40 secretion by pre-DC [1]: readily secreted; IFN-α production by pDC [2]: robust; IFNα secretion by pure pDC cultures [3]: abundant secretion; IL-12p40 secretion by pure pDC cultures [3]: but not IL-12p40
